Reference: patent US7514443B2, “Substituted pyrazolo[1,5-a]pyrimidines as inhibitors of metabotropic glutamate receptors” (Hoffmann-La Roche Inc., priority 2003, dated 2009)

Row | melting point | Structure (SMILES)
1 | 245 °C | Cc1cc(-c2cnn3c(C(F)(F)F)cc(-c4ccc(C(F)(F)F)c(F)c4)nc23)cc(C)n1 [Example 4.25, 5-(3-Fluoro-4-trifluoromethyl-phenyl)-3-(2,6-dimethyl-pyridin-4-yl)-7-trifluoromethyl-pyrazolo[1,5-a]pyrimidine]
2 | 182 °C | Cc1ccc(-c2cc(C(F)(F)F)n3ncc(-c4cccnc4)c3n2)cc1C(F)(F)F [Example 4.26, 5-(4-Methyl-3-trifluoromethyl-phenyl)-3-pyridin-3-yl-7-trifluoromethyl-pyrazolo[1,5-a]pyrimidine]
3 | 218 °C | Cc1ccc(-c2cc(C(F)(F)F)n3ncc(-c4ccncc4)c3n2)cc1C(F)(F)F [Example 4.27, 5-(4-Methyl-3-trifluoromethyl-phenyl)-3-pyridin-4-yl-7-trifluoromethyl-pyrazolo[1,5-a]pyrimidine]
4 | 258 °C | Cc1cc(-c2cnn3c(C(F)(F)F)cc(-c4ccc(C)c(C(F)(F)F)c4)nc23)cc(C)n1 [Example 4.28, 5-(4-Methyl-3-trifluoromethyl-phenyl)-3-(2,6-dimethyl-pyridin-4-yl)-7-trifluoromethyl-pyrazolo[1,5-a]pyrimidine]
5 | 220 °C | Cc1cc(-c2cnn3c(C(F)(F)F)cc(-c4ccc(Cl)cc4)nc23)ccn1 [Example 4.29, 5-(4-Chloro-phenyl)-3-(2-methyl-pyridin-4-yl)-7-trifluoromethyl-pyrazolo[1,5-a]pyrimidine]
6 | 240 °C | Cc1cc(-c2cnn3c(C(F)(F)F)cc(-c4ccc(Cl)c(C)c4)nc23)ccn1 [Example 4.30, 5-(4-Chloro-3-methyl-phenyl)-3-(2-methyl-pyridin-4-yl)-7-trifluoromethyl-pyrazolo[1,5-a]pyrimidine]
7 | 292 °C | Cc1cc(-c2cnn3c(C(F)(F)F)cc(-c4ccc(F)c(Cl)c4)nc23)ccn1 [Example 4.31, 5-(3-Chloro-4-fluoro-phenyl)-3-(2-methyl-pyridin-4-yl)-7-trifluoromethyl-pyrazolo[1,5-a]pyrimidine]
8 | 275 °C | Cc1cc(-c2cnn3c(C(F)(F)F)cc(-c4ccc(Cl)c(Cl)c4)nc23)ccn1 [Example 4.32, 5-(3,4-Dichloro-phenyl)-3-(2-methyl-pyridin-4-yl)-7-trifluoromethyl-pyrazolo[1,5-a]pyrimidine]
9 | 243 °C | Cc1cc(-c2cnn3c(C(F)(F)F)cc(-c4ccc(C(F)(F)F)cc4)nc23)ccn1 [Example 4.33, 5-(4-Trifluoromethyl-phenyl)-3-(2-methyl-pyridin-4-yl)-7-trifluoromethyl-pyrazolo[1,5-a]pyrimidine]
10 | 232 °C | Cc1cc(-c2cnn3c(C(F)(F)F)cc(-c4cccc(C(F)(F)F)c4)nc23)ccn1 [Example 4.34, 5-(3-Trifluoromethyl-phenyl)-3-(2-methyl-pyridin-4-yl)-7-trifluoromethyl-pyrazolo[1,5-a]pyrimidine]
11 | 177 °C | Cc1cc(-c2cc(C(F)(F)F)n3ncc(-c4cccnc4)c3n2)ccc1C(F)(F)F [Example 4.36, 5-(3-Methyl-4-trifluoromethyl-phenyl)-3-pyridin-3-yl-7-trifluoromethyl-pyrazolo[1,5-a]pyrimidine]
12 | 227 °C | Cc1cc(-c2cc(C(F)(F)F)n3ncc(-c4ccncc4)c3n2)ccc1C(F)(F)F [Example 4.37, 5-(3-Methyl-4-trifluoromethyl-phenyl)-3-pyridin-4-yl-7-trifluoromethyl-pyrazolo[1,5-a]pyrimidine]
13 | 253 °C | Cc1cc(-c2cnn3c(C(F)(F)F)cc(-c4ccc(C(F)(F)F)c(C)c4)nc23)cc(C)n1 [Example 4.38, 5-(3-Methyl-4-trifluoromethyl-phenyl)-3-(2,6-dimethyl-pyridin-4-yl)-7-trifluoromethyl-pyrazolo[1,5-a]pyrimidine]
14 | 237 °C | Cc1cc(-c2cnn3c(C(F)(F)F)cc(-c4ccc(C(F)(F)F)c(C)c4)nc23)ccn1 [Example 4.39, 5-(3-Methyl-4-trifluoromethyl-phenyl)-3-(2-methyl-pyridin-4-yl)-7-trifluoromethyl-pyrazolo[1,5-a]pyrimidine]
15 | 178 °C | CCOc1ccc(-c2cc(C(F)(F)F)n3ncc(-c4cccnc4)c3n2)cc1C(F)(F)F [Example 4.40, 5-(4-Ethoxy-3-trifluoromethyl-phenyl)-3-pyridin-3-yl-7-trifluoromethyl-pyrazolo[1,5-a]pyrimidine]
16 | 233 °C | CCOc1ccc(-c2cc(C(F)(F)F)n3ncc(-c4ccncc4)c3n2)cc1C(F)(F)F [Example 4.41, 5-(4-Ethoxy-3-trifluoromethyl-phenyl)-3-pyridin-4-yl-7-trifluoromethyl-pyrazolo[1,5-a]pyrimidine]
17 | 181 °C | FC(F)(F)COc1ccc(-c2cc(C(F)(F)F)n3ncc(-c4cccnc4)c3n2)cc1C(F)(F)F [Example 4.42, 5-(4-Trifluoroethoxy-3-trifluoromethyl-phenyl)-3-pyridin-3-yl-7-trifluoromethyl-pyrazolo[1,5-a]pyrimidine]
18 | 250 °C | CCOc1ccc(-c2cc(C(F)(F)F)n3ncc(-c4ccnc(C)c4)c3n2)cc1C(F)(F)F [Example 4.44, 5-(4-Ethoxy-3-trifluoromethyl-phenyl)-3-(2-methyl-pyridin-4-yl)-7-trifluoromethyl-pyrazolo[1,5-a]pyrimidine]

Row | melting point | Structure (SMILES)
19 | 229 °C | Cc1cc(-c2cnn3c(C(F)(F)F)cc(-c4ccc(OCC(F)(F)F)c(C(F)(F)F)c4)nc23)cc(C)n1 [Example 4.45, 5-[4-(2,2,2-Trifluoroethoxy)-3-trifluoromethyl-phenyl]-3-(2,6-dimethyl-pyridin-4-yl)-7-trifluoromethyl-pyrazolo[1,5-a]pyrimidine]
20 | 210 °C | Cc1cc(-c2cnn3c(C(F)(F)F)cc(-c4ccc(OCC(F)(F)F)c(C(F)(F)F)c4)nc23)ccn1 [Example 4.46, 5-[4-(2,2,2-Trifluoroethoxy)-3-trifluoromethyl-phenyl]-3-(2-methyl-pyridin-4-yl)-7-trifluoromethyl-pyrazolo[1,5-a]pyrimidine]
21 | 251 °C | CCOc1cc(-c2cc(C(F)(F)F)n3ncc(-c4ccncc4)c3n2)ccc1C(F)(F)F [Example 4.47, 5-(3-Ethoxy-4-trifluoromethyl-phenyl)-3-pyridin-4-yl-7-trifluoromethyl-pyrazolo[1,5-a]pyrimidine]
22 | 257 °C | CCOc1cc(-c2cc(C(F)(F)F)n3ncc(-c4cc(C)nc(C)c4)c3n2)ccc1C(F)(F)F [Example 4.48, 3-(2,6-Dimethyl-pyridin-4-yl)-5-(3-ethoxy-4-trifluoromethyl-phenyl)-7-trifluoromethyl-pyrazolo[1,5-a]pyrimidine]
23 | 226 °C | CCOc1cc(-c2cc(C(F)(F)F)n3ncc(-c4ccnc(C)c4)c3n2)ccc1C(F)(F)F [Example 4.49, 5-(3-Ethoxy-4-trifluoromethyl-phenyl)-3-(2-methyl-pyridin-4-yl)-7-trifluoromethyl-pyrazolo[1,5-a]pyrimidine]
24 | 251 °C | FC(F)(F)COc1cc(-c2cc(C(F)(F)F)n3ncc(-c4ccncc4)c3n2)ccc1C(F)(F)F [Example 4.50, 3-Pyridin-4-yl-5-[3-(2,2,2-trifluoro-ethoxy)-4-trifluoromethyl-phenyl]-7-trifluoromethyl-pyrazolo[1,5-a]pyrimidine]
25 | 245 °C | Cc1cc(-c2cnn3c(C(F)(F)F)cc(-c4ccc(C(F)(F)F)c(OCC(F)(F)F)c4)nc23)cc(C)n1 [Example 4.51, 3-(2,6-Dimethyl-pyridin-4-yl)-5-[3-(2,2,2-trifluoro-ethoxy)-4-trifluoromethyl-phenyl]-7-trifluoromethyl-pyrazolo[1,5-a]pyrimidine]
26 | 201 °C | Cc1cc(-c2cnn3c(C(F)(F)F)cc(-c4ccc(C(F)(F)F)c(OCC(F)(F)F)c4)nc23)ccn1 [Example 4.52, 3-(2-Methyl-pyridin-4-yl)-5-[3-(2,2,2-trifluoro-ethoxy)-4-trifluoromethyl-phenyl]-7-trifluoromethyl-pyrazolo[1,5-a]pyrimidine]
27 | 209 °C | FC(F)(F)c1ccc(-c2cc(C(F)(F)F)n3ncc(-c4ccncc4)c3n2)cc1C(F)(F)F [Example 4.53, 5-(3,4-Bis-trifluoromethyl-phenyl)-3-pyridin-4-yl-7-trifluoromethyl-pyrazolo[1,5-a]pyrimidine]
28 | 223 °C | Cc1cc(-c2cnn3c(C(F)(F)F)cc(-c4ccc(C(F)(F)F)c(C(F)(F)F)c4)nc23)ccn1 [Example 4.54, 5-(3,4-Bis-trifluoromethyl-phenyl)-3-(2-methyl-pyridin-4-yl)-7-trifluoromethyl-pyrazolo[1,5-a]pyrimidine]
29 | 289 °C | FC(F)(F)c1cc(-c2ccc(Br)cc2)nc2c(-c3ccncc3)cnn12 [Example 4.55, 5-(4-Bromo-phenyl)-3-pyridin-4-yl-7-trifluoromethyl-pyrazolo[1,5-a]pyrimidine]
30 | 226 °C | Cc1cc(-c2cnn3c(C(F)(F)F)cc(-c4ccc(Br)cc4)nc23)ccn1 [Example 4.56, 5-(4-Bromo-phenyl)-3-(2-methyl-pyridin-4-yl)-7-trifluoromethyl-pyrazolo[1,5-a]pyrimidine]
31 | 258 °C | Cc1cc(-c2cnn3c(C(F)(F)F)cc(-c4ccc(Br)cc4)nc23)cc(C)n1 [Example 4.57, 5-(4-Bromo-phenyl)-3-(2,6-dimethyl-pyridin-4-yl)-7-trifluoromethyl-pyrazolo[1,5-a]pyrimidine]
32 | 244 °C | COc1ccc(-c2cc(C(F)(F)F)n3ncc(-c4ccncc4)c3n2)cc1 [Example 4.58, 5-(4-Methoxy-phenyl)-3-pyridin-4-yl-7-trifluoromethyl-pyrazolo[1,5-a]pyrimidine]
33 | 202 °C | N#Cc1ncn2c(C(F)(F)F)cc(-c3ccccc3)nc12 [Example 5.1, 2-Phenyl-4-trifluoromethyl-imidazo[1,5-a]pyrimidine-8-carbonitrile]
34 | 205 °C | N#Cc1ncn2c(C(F)(F)F)cc(-c3ccc(Cl)cc3)nc12 [Example 5.2, 2-(4-Chloro-phenyl)-4-trifluoromethyl-imidazo[1,5-a]pyrimidine-8-carbonitrile]
35 | 221 °C | N#Cc1ncn2c(C(F)(F)F)cc(-c3cccc(Cl)c3)nc12 [Example 5.3, 2-(3-Chloro-phenyl)-4-trifluoromethyl-imidazo[1,5-a]pyrimidine-8-carbonitrile]
